Source: patent US11993640B2, “Treating inflammatory lung disease” (United States Government as represented by the Department …, priority 2019, dated 2024)
Non-standard residues stand in square brackets, D forms with d. Residues, ends and D or L forms follow the SMILES beside them. *: point of attachment. Phe(F5) = N[C@@H](Cc1c(F)c(F)c(F)c(F)c1F)C(=O)O; hArg = N=C(N)NCCCC[C@H](N)C(=O)O; 12Ado = NCCCCCCCCCCCC(=O)O; Nle = CCCC[C@H](N)C(=O)O; Orn = NCCC[C@H](N)C(=O)O; Abu = CC[C@H](N)C(=O)O; PhAc = O=C(Cc1ccccc1)*

Experiments:
[1] = system: PC3 xenograft; experiment: Xenograft tumor growth in nude mice, prostate cancer PC3; type: in vivo; conditions: Panel N, 8 weeks, 5 μg/day s.c.
Procedure: The peptides' activity was compared with GHRH antagonist MIA-602. All statistical analyzses were performed from comparing GHRA antagonists to non-treated tumor (control).
Peptides and chemicals. GHRH antagonists MIA-602 and AVR-GHRH antagonists (see Table 2 above) were synthesized by solid phase methods and purified by HPLC. The peptides were dissolved in DMSO and further diluted in 10% 1, 2-propanediol. The final concentration of peptides was 50 µg/ml in 10% 1, 2-propanediol containing 0.1% of DMSO.
Cell culture. Human cancer cell lines including pancreatic (PANC-1 and CFPAC-1), lung (HCC827 and H460), stomach (NCI-N87), prostate (PC3), brest (MX-1 and HCC-1806), colorectal (HT-29), and ovarian (SK-OV-3 and OVCAR-3) were obtained from the American Type Culture Collection (ATCC) and cultured at 37° C. in a humidified 95% air/5% CO2 atmosphere in the medium recommended by ATCC.
Xenograft models of human cancers in nude mice. Female athymic (NCr nu/nu) nude mice, 5-to 6-weeks-old, obtained from the Envigo labs (Tampa, FL), were housed in laminar airflow cabinets under pathogen-free conditions with a 12-h light/12-h dark schedule, and were fed autoclaved standard chow and water. To generate mice with xenografted tumors, tumor xenografts were initiated by subcutaneous (s.c.) injection of […] human cancer cells into female nude mice. After about 4 weeks the resulting tumors were dissected and collected after removing necrosis tissues. The tumors were then cut into particles with size of ˜3 mm3 and transplanted s.c. by trocar needle into experimental animals. When tumors grew to the size of 50-60 mm3 (by volume), mice were randomized into groups and treated daily for 4-8 weeks by subcutaneous administration of 5 μg of GHRH antagonists MIA-602 or AVR-compounds (2-10 μg as indicated), or vehicle solutions (0.1% DMSO in 10% 1, 2-propanediol) respectively. Tumor sizes were measured weekly.
Statistical analysis. One-way ANOVA followed by Bonferroni comparison were performed. Data are expressed as Mean±SEM. […]

[2] = system: mouse lung fibroblasts (Mlg 2908); experiment: RNAseq of cultured lung fibroblasts; type: cell-based; conditions: 1 and 5 μM, normal fibroblasts not exposed to bleomycin
Procedure: (§1) Lung fibroblasts. Newborn mouse lung fibroblasts (Mlg 2908) were obtained from the American Type Culture Collection, Manassas, VA and cultured in Eagle's minimal essential medium. Cells were grown in 6-well plates before incubation with 1 or 5 μM MIA-602 or vehicle, RNA isolation, and oxygen consumption measurements.
RNA was extracted from cultured fibroblasts using a Direct-zol RNA MicroPrep kit (R2060; Zymo Research, Irvine, CA). Cells were washed with PBS and lysed in TRIreagent™, then purified using Direct-zol RNA columns. DNase I treatment was done in columns and RNA eluted in DNase/Rnase-free water.
RNAseq and Pathway analyses. At least 10 ng of total RNA was used as input for the KAPA RNA HyperPrep Kit with RiboErase (HMR) to create ribosomal RNA-depleted sequencing libraries, including sample indexing, to allow for multiplexing. Cluster generation and sequencing was done on the Illumina cBOT and HiSeq 3000 using reagents provided by Illumina, finally generating >32 million single-end 100 base reads per sample.
De-multiplexed FASTQ files were created with Illumina supplied scripts in BCL2FASTQ software (v2.17). […]
Gene counts were normalized using trimmed mean of M-values (TMM) method. Differential expression between groups was calculated with the exact test implemented in edgeR (Robinson M, McCarthy D, Smyth G (2010). Bioinformatics 26:139-140). […]

[3] = system: mouse lung fibroblasts (Mlg 2908); experiment: Cellular respiration, Seahorse XF Cell Mito Stress Test; type: cell-based; conditions: 24 hours
Procedure: as §1
Cellular respiration. The effects of MIA-602 on mouse lung fibroblast oxygen consumption was measured using the Agilent Seahorse XF Cell Mito Stress Test (Agilent Technologies, Santa Clara, CA) (Divakaruni A, Paradyse A, Ferrick D, Murphy A, Jastroch M (2014). Methods in Enzymology 547:309-354). Fibroblasts were incubated with vehicle, 1 or 5 μM MIA-602 for 24 hours before measurement of oxygen consumption. One day before assay 80,000 fibroblasts were seeded into Seahorse 24-well plates (n=6 wells per condition). Basal respiration was established and oligomycin, FCCP and rotenone plus antimycin A were added sequentially to measure ATP production, uncoupled respiration; and, non-mitochondrial oxygen consumption (Wangpaichitr, Wu C, Li Y, Nguyen D, Kandemir H, Shah S, Chen S, Feun L, Prince J, Kuo M, Savaraj N (2017). Oncotarget 8(30):49275-49292).

**Q.** Which “Tumor Growth %” value [1] does the source give for CCCC[C@H](NC(=O)[C@@H](NC(=O)[C@H](CC(=O)O)NC(=O)[C@H](CCC(N)=O)NC(=O)[C@H](CC(C)C)NC(=O)[C@H](CC(C)C)NC(=O)[C@H](CCCN)NC(=O)[C@H](Cc1c[nH]cn1)NC(=O)[C@H](C)NC(=O)[C@H](CO)NC(=O)[C@H](CC(C)C)NC(=O)[C@H](CCC(N)=O)NC(=O)[C@H](CC)NC(=O)[C@H](CC(C)C)NC(=O)[C@@H](NC(=O)[C@H](CCCN)NC(=O)[C@H](Cc1c[nH]cn1)NC(=O)[C@H](Cc1ccc(OC)cc1)NC(=O)[C@H](CCCCNC(=N)N)NC(=O)[C@H](C)NC(=O)[C@@H](NC(=O)[C@H](Cc1c(F)c(F)c(F)c(F)c1F)NC(=O)[C@@H](NC(=O)[C@H](C)NC(=O)[C@H](CC(=O)O)NC(=O)[C@@H](CCCNC(=N)N)NC(=O)[C@H](Cc1ccc(O)cc1)NC(=O)CCCCCCCCCCCNC(=O)Cc1ccccc1)[C@@H](C)CC)[C@@H](C)O)C(C)C)[C@@H](C)CC)C(=O)N[C@H](CCCNC(=N)N)C(=O)N[C@@H](CCCCNC(=N)N)C(N)=O [MIA-602, PhAC-Ada, Tyr D-Arg, Asp, Ala, Ile, 5FPhe, Thr, Ala, Har, Tyr(Me), His, Orn, Val, Leu, Abu, Gin, Leu, Ser, Ala, His, Orn, Leu, Leu, Gin, Asp, Ile, Nle, D-Arg, Har NH2, reference compound] ({PhAc-12Ado}-Y[dR]DAI[Phe(F5)]TA[hArg]Y(Me)H[Orn]VL[Abu]QLSAH[Orn]LLQDI[Nle][dR][hArg]-NH2) here?
**A.** 450.9%

**Q.** And the “Fibroblast gene expression” value [2]?
**A.** significant downregulation of genes involved in collagen fibril organization, cell-matrix adhesion and elastic fiber assembly

**Q.** And the “Spare respiratory capacity” value ([3]; 5 μM)?
**A.** increased

**Q.** And the “Basal oxygen consumption / basal respiration” value ([3]; 5 μM, compared to vehicle)?
**A.** increased basal oxygen consumption

**Q.** What about the “Maximal, uncoupled respiration after FCCP” value ([3]; 5 μM, compared to vehicle) of the same compound?
**A.** increased

**Q.** And the “Non-mitochondrial respiration after antimycin A and rotenone” value ([3]; 1 and 5 μM)?
**A.** appeared to increase non-mitochondrial respiration
